# Experimental data reported in publication PMC9982066, “Inhibition of Ehrlichia chaffeensis infection by cell-permeable macrocyclic peptides that bind type IV secretion effector Etf-1” (PNAS Nexus, 2023).
# Starred links: 1 amine or outer side, 2 acyl side, 3 side chain; linkers in the order of their positions; H or OH if unused. Positions of bridges follow the written chain, without caps; N, C: chain ends. Non-standard residues stand in square brackets, D forms with d. Residues, ends and D or L forms follow the SMILES beside them. *: point of attachment. 5FAM = O=C1OC2(c3ccc(O)cc3Oc3cc(O)ccc32)c2ccc(C(=O)*)cc21; Trimesoyl = O=C(c1cc(C(=O)[*:2])cc(C(=O)[*:3])c1)[*:1]; Phe(4-Cl) = N[C@@H](Cc1ccc(Cl)cc1)C(=O)O; Phe(4-F) = N[C@@H](Cc1ccc(F)cc1)C(=O)O; d2Nal = N[C@H](Cc1ccc2ccccc2c1)C(=O)O; βAsp = O=C(O)[C@H](CC(=O)[*:2])N[*:1]; Phg = N[C@H](C(=O)O)c1ccccc1; Dap = NC[C@H](N)C(=O)O; βAla = NCCC(=O)O
# Experiments:
# Etf-1 = Etf-1 (Ehrlichia chaffeensis, UniProt Q2GG12); experiment: biochemical; assay type: binding; conditions: unlabeled competitor peptides vs FAM-B7-133-8
# Sequence of Etf-1 (Q2GG12 entry or part of it): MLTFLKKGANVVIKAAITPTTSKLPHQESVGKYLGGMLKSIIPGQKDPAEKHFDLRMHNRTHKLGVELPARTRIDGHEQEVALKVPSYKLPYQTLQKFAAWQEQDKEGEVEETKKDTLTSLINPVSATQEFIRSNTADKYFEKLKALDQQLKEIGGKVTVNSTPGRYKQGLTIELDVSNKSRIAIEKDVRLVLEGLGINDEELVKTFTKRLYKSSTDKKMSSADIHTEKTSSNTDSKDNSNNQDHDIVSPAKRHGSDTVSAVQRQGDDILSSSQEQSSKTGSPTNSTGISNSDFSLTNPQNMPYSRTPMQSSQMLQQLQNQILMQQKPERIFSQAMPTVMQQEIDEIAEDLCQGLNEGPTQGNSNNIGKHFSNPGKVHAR
# Method: Fig. 2. Determination of binding affinity of Etf-1-binding peptides by FP assay. […] FAM-labeled peptide (50 nM) was incubated with serially diluted Etf-1 (starting from 25–30 μM in PBS, pH 7.4, supplemented with 5 mM DTT and 0.01% Triton X-100) for 1 h at RT. FP values were measured on a Tecan Infinite M1000 Pro plate reader. Titration curves (n ≥ 3) were fitted using GraphPad Prism and analyzed with TraceDrawer to calculate dissociation constants (KD). […] Data were analyzed using GraphPad Prism and fitted to a four-parameter variable slope equation to determine IC50 values.
# Serial dilutions of competitor peptide (0-20 μM) were prepared from DMSO stock solutions into PBS containing 0.01% Triton-X100 and 2 mM TCEP and added to aliquots of the equilibrated Etf-1/probe solution. After incubation for 1 h in the dark and with gentle mixing, 20 μL of each sample was transferred into 384-well black-on-black microplates and FP was measured using a TECAN Infinite M1000 plate reader. Data were analyzed using GraphPad PRISM ver. 8.0 and fit to a four-parameter variable slope equation to determine IC50 values. IC50 values reported are the mean ± SD of n = 2–4 independent experiments.
# THP-1 cells = experiment: CellTiter-Glo luminescent cell viability assay; conditions: 2-day treatment; for cell viability: 20 μM
# Excerpt: THP-1 (human promyelocytic leukemia) cells are widely used as E. chaffeensis infection studies of human monocytes in vitro, since initial characterization of infection ([31]).
# Fig. 4. Cytotoxicity and proteolytic stability of Etf-1-binding peptides. (A) Effect of Etf-1-binding peptides on the viability of THP-1 cells as determined by CellTiter-Glo luminescent assay. Relative luminescence was plotted as function of the peptide concentration, with the cell viability of DMSO control group set as 100%. (B) Plot of the amount of intact peptide remaining as a function of the incubation time in 25% human serum. All values are normalized to that of peptide at time 0 (100%).
# Cytotoxicity of Etf-1-binding peptides was examined by CellTiter-Glo luminescent cell viability assay (Promega, Madison, WI, USA). THP-1 cells were seeded in a transparent 96-well plate at a density of 5 × 10^3 cells/well (100 μL in each well) in RPMI-1640 containing 10% FBS and 1% antibiotics and cultured overnight. Etf-1-binding peptides were serially diluted in DPBS from a DMSO stock and added to the cells with the final concentration of 0–25 μM and a constant final concentration of 0.5% DMSO (v/v). After incubation at 37°C with 5% CO2 for 46 h, the plate was removed and pre-equilibrated to RT before the addition of 100 μL of the CellTiter-Glo 2.0 reagent to each well. The plate was incubated for 15 min on a rotary shaker in the dark, and the luminescence was detected (1-s integration time) on a Tecan Infinite M1000 Pro microplate reader. Relative luminescence was plotted as function of the peptide concentration, with the cell viability of DMSO control group set as 100%.
# E. chaffeensis [1] = experiment: morphological examination of E. chaffeensis infection of THP-1 cells by Diff-Quik staining; conditions: for E. chaffeensis infection (numbers and sizes of morulae): THP-1 cells, Fig. S4 (with Figs. 5, S3)
# Method: Ehrlichia chaffeensis Arkansas strain ([43]) was cultured in THP-1 cells (ATCC, Manassas, VA, USA) in RPMI 1640 medium (Corning, Manassas, VA, USA) supplemented with 8% FBS (Atlanta Biologicals, Flowery Branch, GA, USA) and 4 mM L-glutamine (at 37°C under 5% CO2 in a humidified atmosphere. THP-1 cells were seeded at 1 × 10^5 cells/well (in 1.5-mL RPMI 1640 culture medium with 8% FBS, 4 mM L-Gln) in a 12-well plate, then infected with host cell-free E. chaffeensis at an MOI (multiplicity of infection, or numbers of bacteria per cell) of ∼30. Cells were cultured in a humidified incubator with 5% CO2 and 95% air. No antibiotic was used throughout the study. At 0.5 h post infection (pi), cells were incubated with 1–10 μM of peptides or with an equal volume of DMSO (solvent control, 2 μL per mL medium). At 2 days pi, cells were washed with 1 mL of PBS, and two drops of cells were cytospun onto glass slides by a Shandon Cytospin 4 cytocentrifuge (Thermo Fisher Scientific), then fixed and stained with HEMA 3 staining solutions (Thermo Fisher Scientific). Ehrlichia infection was observed and images were captured by a SPOT RT digital camera (Diagnostic Instruments, Sterling Heights, MI, USA) coupled to a Nikon Eclipse E400 microscope (Nikon, Melville, NY, USA).
# BECN1 binding to Etf-1 = experiment: streptavidin magnetic beads pull-down of BECN1 with biotin-Etf-1, Western blot; assay type: biochemical; conditions: 10 µM peptide; for BECN1/Etf-1 Ratio: band intensities, DMSO control set as 1, Fig. 8B
# Method: Fig. 8.
# Streptavidin magnetic beads (15 µL, Pierce, Rockford, IL, USA) were washed with 1 mL of Bind/Wash buffer (25 mM Tris, pH 7.4; 250 mM NaCl, 0.1% Tween 20), and incubated with 0.15 µg ([…] final concentration) of biotinylated full-length Etf-1 protein in bind/wash buffer at 4°C overnight with end-to-end rotation. Beads were washed three times with Bind/Wash buffer, then incubated with Etf-1-binding macrocyclic peptides (10 µM) or DMSO control in Bind/Wash buffer at room temperature for 2 h. […] Beads were washed three times, and proteins were eluted from the beads with 50 µL of 2× SDS-sample buffer. […] Reacting bands were visualized with enhanced chemiluminescence by incubating the membrane with LumiGLO chemiluminescent reagent (Thermo Fisher Scientific). Images were captured by Amersham Imager 680 (GE Healthcare) and densitometry analysis was performed using ImagQuaNT (GE Healthcare). In each specimen, band intensities were normalized against those of actin as the loading control, and the ratios of the treatment group to the control group were calculated with the value in the control groups arbitrarily set as 1.0.
# [2] = LDH release assay (plasma membrane damage); assay type: cell-based; conditions: Fig. S2
# Method: LDH release assay (Promega) was performed to assess the level of plasma membrane damage in a cell population by these compounds. […] Control wells contained 10 μL of lysis buffer, cell-free complete growth media, or positive LDH control. Following incubation at 37°C and 5% CO2 for 45 to 75 min, the culture was centrifuged and 50 μL of the growth medium was withdrawn from each well, transferred to a clear 96-well plate, mixed with 50 μL of LDH substrate mixture, and incubated at RT for 30 min with gentle mixing. Finally, 50 μL of 1 N HCl was added to each well, and the absorbances at 490 and 680 nm were immediately measured on a Tecan Infinite M1000 plate reader. Relative membrane leakage was calculated and plotted using GraphPad Prism v8.0.
# E. chaffeensis [3] = experiment: E. chaffeensis infection of THP-1 cells, qPCR of 16S rRNA gene normalized to human actin; assay type: cell-based, Ehrlichia chaffeensis; conditions: 10 μM, 2 days, vs DMSO control
# Method: Therefore, we investigated whether these Etf-1-binding peptides can prevent the proliferation of E. chaffeensis inside host cells. THP-1 cells were infected with E. chaffeensis, then treated with the peptides at 30 min post infection (pi) for 2 days. Intracellular infection and proliferation of E. chaffeensis inside host THP-1 cells were assessed using quantitative PCR (qPCR) analysis based on E. chaffeensis 16S rRNA gene normalized by human actin (ACT) gene.
# Fig. 5. Effects of Etf-1-binding peptides on E. chaffeensis infection of THP-1 cells. Ehrlichia chaffeensis-infected THP-1 cells at […] were incubated with 10 μM of Etf-1-binding macrocyclic peptide or DMSO control for 2 days.
# No antibiotic was used throughout the study.
# DNA was extracted from each sample using Qiagen blood mini kit according to the manufacturer's instructions (Qiagen, Valencia, CA, USA), and qPCR analysis was performed in an MX3000P qPCR instrument (Stratagene, San Diego, CA, USA) using SYBR Green Real-Time PCR Master Mix (Thermo Fisher Scientific) according to the manufacturer's instructions. Five-fold serial dilutions of the control group were used to generate a standard curve to calculate the relative copy numbers of E. chaffeensis 16S rRNA normalized against human actin genes using the MX3000P software from Stratagene as described previously ([18], [44]).
SMILES,competition for Etf-1 binding (Etf-1),cell viability (THP-1 cells),cytotoxicity (THP-1 cells; up to 10 μM),E. chaffeensis infection (numbers and sizes of morulae) (E. chaffeensis [1]),BECN1/Etf-1 Ratio (BECN1 binding to Etf-1),release of lactate dehydrogenase (LDH) [2],inhibition of E. chaffeensis infection (E. chaffeensis [3]),cytotoxicity (cell lysis in treated groups) (E. chaffeensis [1]; THP-1 host cells),disruption of BECN1 binding to Etf-1 (BECN1 binding to Etf-1; compared to DMSO control)
"CC(C)C[C@H]1NC(=O)C[C@@H](C(=O)O)NC(=O)[C@@H](Cc2ccc(O)cc2)NC(=O)[C@H](c2ccccc2)NC(=O)[C@H](CC(=O)O)NC(=O)[C@H](Cc2ccc(F)cc2)NC(=O)[C@H](Cc2ccc(O)cc2)NC(=O)c2cc3cc(c2)C(=O)NC[C@H](NC1=O)C(=O)N[C@@H](Cc1ccc(Cl)cc1)C(=O)N[C@H](Cc1ccc2ccccc2c1)C(=O)N[C@H](CCCNC(=N)N)C(=O)N[C@@H](CCCNC(=N)N)C(=O)N[C@H](CCCNC(=N)N)C(=O)N[C@@H](CCCNC(=N)N)C(=O)N[C@H](C(=O)NCCC(=O)NCCC(=O)N[C@@H](CCCCNC(=O)c1ccc2c(c1)C(=O)OC21c2ccc(O)cc2Oc2cc(O)ccc21)C(N)=O)CNC3=O [Peptide B7-131-4, TMA-Tyr-Fpa-Asp-Phg-tyr-isoAsp-leu-Dap-4-ClPhe-nal-arg-Arg-arg-Arg-Dap] (Y[Phe(4-F)]D[Phg][dY][βAsp][dL][Dap][Phe(4-Cl)][d2Nal][dR]R[dR]R[Dap][βAla][βAla]K(5FAM)-NH2; linker N-8-15 via Trimesoyl)",Competition for Etf-1 binding was observed,slightly reduced the cell viability,no cytotoxicity,only slightly reduced,0.91,,,,
"CC(C)C[C@H]1NC(=O)[C@H](C)NC(=O)[C@H](CC(=O)O)NC(=O)[C@@H](Cc2ccc3ccccc3c2)NC(=O)[C@H]2CCCN2C(=O)[C@H](Cc2c[nH]cn2)NC(=O)[C@H](Cc2ccc(O)cc2)NC(=O)c2cc3cc(c2)C(=O)NC[C@H](NC1=O)C(=O)N[C@@H](Cc1ccc(Cl)cc1)C(=O)N[C@H](Cc1ccc2ccccc2c1)C(=O)N[C@H](CCCNC(=N)N)C(=O)N[C@@H](CCCNC(=N)N)C(=O)N[C@H](CCCNC(=N)N)C(=O)N[C@@H](CCCNC(=N)N)C(=O)N[C@H](C(N)=O)CNC3=O [Peptide B7-131-5, TMA-Tyr-His-pro-nal-Asp-Ala-leu-Dap-4-ClPhe-nal-arg-Arg-arg-Arg-Dap] (YH[dP][d2Nal]DA[dL][Dap][Phe(4-Cl)][d2Nal][dR]R[dR]R[Dap]-NH2; linker N-8-15 via Trimesoyl)",Competition for Etf-1 binding was observed,greater loss of cell viability,,significantly inhibited,0.23,significant release of lactate dehydrogenase,significantly inhibited,certain degrees of cytotoxicity,disrupted BECN1 binding to Etf-1
